In patent publication US20230146507A1, “N-PHENYL-3-MERCAPTOPROPANAMIDE DERIVATIVES AS METALLO-BETA-LACTAMASE INHIBITORS FOR THE TREATMENT OF BACTERIAL INFECTIONS” (Helmholtz-Zentrum Für Infektionsforschung GmbH, priority 2020, published 2023):
In brackets after ≈: the same amount, converted by molar mass.

What was measured:
[1] = tested on: imipenem-resistant P. aeruginosa producing VIM-2; assay: Imipenem MIC with compound at single concentration; assay type: cell-based; conditions: compound at single concentration 1024 μg/mL
[2] = target: MMP-1 (Homo sapiens, UniProt P03956); assay: Selectivity assay on MMP-1; assay type: biochemical; conditions: read-out: % Inh. @ 100 μM MMP-1
Method: (§1) Cytotoxicity assays and Selectivity assays. Cytotoxicity assays on HepG2, HEK293 and A549 cells and selectivity assays on various MMPs were performed as described previously (Haupenthal, J.; Baehr, C.; Zeuzem, S.; Piiper, A. RNAse A-like Enzymes in Serum Inhibit the Anti-Neoplastic Activity of SiRNA Targeting Polo-like Kinase 1. Int. J. Cancer 2007, 121 (1), 206-210. https://doi.org/10.1002/ijc.22665).

[3] = target: T1, VIM-1 (Pseudomonas aeruginosa, UniProt A0A0F7KYQ8); assay: In vitro inhibition assay (kinetic fluorescence-based activity assay), VIM-1; assay type: biochemical; conditions: Means and SD of at least two independent experiments
T1 construct: made in house
Method: (§2) Protein expression and purification. The expression of IMP-7, VIM-1, and NDM-1 was performed according to the protocol previously published by Klingler et al. (Klingler, F. M.; Wichelhaus, T. A.; Frank, D.; Cuesta-Bernal, J.; El-Delik, J.; Müller, H. F.; Sjuts, H.; Gottig, S.; Koenigs, A.; Pos, K. M.; et al. Approved Drugs Containing Thiols as Inhibitors of Metallo-β-Lactamases: Strategy to Combat Multidrug-Resistant Bacteria. J. Med. Chem. 2015, 58 (8), 3626-3630. https://doi.org/10.1021/jm501844d) with slight modifications.
(§3) In vitro inhibition assay. Activity assays for NDM-1, VIM-1, VIM-2 and IMP-7 were carried out, as described by Klingler et al. Final protein concentrations were 0.5 nM (NDM-1), 4.0 nM (VIM-1), and 0.1 nM (IMP-7) in a 50 mM HEPES buffer (pH 7.5, 0.01% Triton X-100) Substrate (Fluorocillin™ (Invitrogen, Darmstadt, Germany) was dissolved in assay buffer to a final concentration of 888 nM. Test compounds were dissolved and pre-diluted in DMSO (final concentration: 1%). In a black polystyrol 96-well plate (Corning) an amount of […] of the respective inhibitor solution at different concentrations was incubated with […] of respective protein containing buffer for 30 minutes at room temperature. […] of substrate solution was added. The readout of the emitted fluorescence was started immediately (45 s for 30 cycles) using a Tecan Infinite F200Pro (Tecan Group Ltd; excitation at 495 nm and emission at 525 nm). Blank controls were performed without enzyme. Positive controls were performed with enzyme but without inhibitor. The inhibitory activity of each test compound was measured in three independent experiments. For calculation of IC50 values, data obtained from measurements with eight different inhibitor concentrations were used. For the evaluation of the sigmoidal dose response equation (variable slope with four parameters) GraphPad Prism 5 (GraphPad Software, La Jolla, Calif., USA) was used.

[4] = target: MMP-7 (Homo sapiens, UniProt P09237); assay: Selectivity assay on MMP-7; assay type: biochemical; conditions: read-out: % Inh. @ 100 μM MMP-7
Method: as §1

[5] = target: T2, NDM-1 (Klebsiella pneumoniae, UniProt C7C422); assay: In vitro inhibition assay (kinetic fluorescence-based activity assay), NDM-1; assay type: biochemical; conditions: Means and SD of at least two independent experiments
T2 construct: made in house
Method: as §2, §3

[6] = Cytotoxicity assay on HEK293 cells; assay type: cell-based; conditions: human
Method: as §1

[7] = target: IMP-7 (Pseudomonas aeruginosa, UniProt Q93AU3); assay: In vitro inhibition assay (kinetic fluorescence-based activity assay), IMP-7; assay type: biochemical; conditions: Means and SD of at least two independent experiments
Method: as §2, §3

[8] = target: MMP-8 (Homo sapiens, UniProt P22894); assay: Selectivity assay on MMP-8; assay type: biochemical; conditions: read-out: % Inh. @ 100 μM MMP-8
Method: as §1

[9] = tested on: different isolates from E. coli and P. aeruginosa; assay: MIC assay, intrinsic antibacterial activity; assay type: cell-based; conditions: compound alone
[10] = Cytotoxicity assay on HepG2 cells; assay type: cell-based; conditions: human
Method: as §1

[11] = Cytotoxicity assay on A549 cells; assay type: cell-based; conditions: human
Method: as §1

[12] = target: MMP-2 (Homo sapiens, UniProt P08253); assay: Selectivity assay on MMP-2; assay type: biochemical; conditions: read-out: % Inh. @ 100 μM MMP-2
Method: as §1

[13] = target: MMP-14 (Homo sapiens, UniProt P50281); assay: Selectivity assay on MMP-14; assay type: biochemical; conditions: read-out: % Inh. @ 100 μM MMP-14
Method: as §1

[14] = target: MMP-3 (Homo sapiens, UniProt P08254); assay: Selectivity assay on MMP-3; assay type: biochemical; conditions: read-out: % Inh. @ 100 μM MMP-3
Method: as §1

[15] = tested on: K. pneumoniae NDM-1 (T2301); assay: MIC assay, clinical isolate; assay type: cell-based; conditions: +HIPS1686 256 mg/L
[16] = tested on: P. aeruginosa IMP-1 (T2325); assay: MIC assay, clinical isolate; assay type: cell-based; conditions: +HIPS1686 256 mg/L; P. aeruginosa IMP-1 (T2325)
[17] = tested on: E. cloacae NDM-1 (T2311); assay: MIC assay, clinical isolate; assay type: cell-based; conditions: +HIPS1686 256 mg/L
[18] = tested on: E. cloacae GIM-1 (T2218); assay: MIC assay, clinical isolate; assay type: cell-based; conditions: +HIPS1686 256 mg/L; E. cloacae GIM-1 (T2218)
[19] = tested on: E. coli producing NDM-1; assay: MIC of imipenem in the presence of HIPS1686; assay type: cell-based
[20] = tested on: E. coli NDM-5 (T2351); assay: MIC assay, clinical isolate; assay type: cell-based; conditions: +HIPS1686 256 mg/L
[21] = tested on: E. cloacae VIM-1 (T2353); assay: MIC assay, clinical isolate; assay type: cell-based; conditions: +HIPS1686 256 mg/L
[22] = tested on: E. coli NDM-1 (T2359); assay: Checkerboard assay with imipenem, E. coli NDM-1 (T2359); assay type: cell-based; conditions: Table 4, median of three experiments
Method: Fractional inhibitory concentration index (FICI). The checkerboard assay was performed to test for synergy in vitro. […] FICIs≤0.5 were defined as synergistic; FICIs from >0.5 to […] were defined as additive; FICIs from 1 to ≤4 were defined as indifferent and FICIs>4 were defined as antagonistic (Doern, C. D. When Does 2 plus 2 Equal 5? A Review of Antimicrobial Synergy Testing. J. Clin. Microbial. 2014, 52 (12), 4124-4128. https://doi.org/10.1128/JCM.01121-14).

[23] = tested on: S. marcescens NDM-1 (T2352); assay: MIC assay, clinical isolate; assay type: cell-based; conditions: +HIPS1686 256 mg/L; S. marcescens NDM-1 (T2352)

T2 sequence (C7C422 29-270, looked up, species assumed): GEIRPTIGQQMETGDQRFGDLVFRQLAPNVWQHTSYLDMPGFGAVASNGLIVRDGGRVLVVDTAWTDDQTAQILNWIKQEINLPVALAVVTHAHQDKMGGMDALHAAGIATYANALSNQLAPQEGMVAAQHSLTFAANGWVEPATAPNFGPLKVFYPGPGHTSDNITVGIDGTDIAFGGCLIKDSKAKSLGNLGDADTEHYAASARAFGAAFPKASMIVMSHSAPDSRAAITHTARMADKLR
IMP-7, sequence (Q93AU3 entry or part of it): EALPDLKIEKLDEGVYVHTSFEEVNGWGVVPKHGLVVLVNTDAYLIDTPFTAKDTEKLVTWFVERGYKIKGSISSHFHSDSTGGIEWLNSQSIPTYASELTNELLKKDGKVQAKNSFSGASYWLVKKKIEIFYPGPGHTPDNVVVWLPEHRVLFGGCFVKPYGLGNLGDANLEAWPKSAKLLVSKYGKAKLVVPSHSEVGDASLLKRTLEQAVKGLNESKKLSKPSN
MMP-3, sequence (P08254 100-477): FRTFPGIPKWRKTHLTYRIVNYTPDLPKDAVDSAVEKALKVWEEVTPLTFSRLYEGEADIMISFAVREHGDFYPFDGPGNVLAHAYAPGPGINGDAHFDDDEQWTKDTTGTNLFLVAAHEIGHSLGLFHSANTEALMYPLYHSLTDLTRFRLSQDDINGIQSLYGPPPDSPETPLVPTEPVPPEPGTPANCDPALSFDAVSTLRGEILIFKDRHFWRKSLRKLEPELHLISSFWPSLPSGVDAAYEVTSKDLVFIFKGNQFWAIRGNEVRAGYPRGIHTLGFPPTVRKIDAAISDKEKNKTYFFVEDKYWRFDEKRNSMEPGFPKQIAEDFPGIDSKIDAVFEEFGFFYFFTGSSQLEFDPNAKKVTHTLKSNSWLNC
MMP-2, sequence (P08253 110-660): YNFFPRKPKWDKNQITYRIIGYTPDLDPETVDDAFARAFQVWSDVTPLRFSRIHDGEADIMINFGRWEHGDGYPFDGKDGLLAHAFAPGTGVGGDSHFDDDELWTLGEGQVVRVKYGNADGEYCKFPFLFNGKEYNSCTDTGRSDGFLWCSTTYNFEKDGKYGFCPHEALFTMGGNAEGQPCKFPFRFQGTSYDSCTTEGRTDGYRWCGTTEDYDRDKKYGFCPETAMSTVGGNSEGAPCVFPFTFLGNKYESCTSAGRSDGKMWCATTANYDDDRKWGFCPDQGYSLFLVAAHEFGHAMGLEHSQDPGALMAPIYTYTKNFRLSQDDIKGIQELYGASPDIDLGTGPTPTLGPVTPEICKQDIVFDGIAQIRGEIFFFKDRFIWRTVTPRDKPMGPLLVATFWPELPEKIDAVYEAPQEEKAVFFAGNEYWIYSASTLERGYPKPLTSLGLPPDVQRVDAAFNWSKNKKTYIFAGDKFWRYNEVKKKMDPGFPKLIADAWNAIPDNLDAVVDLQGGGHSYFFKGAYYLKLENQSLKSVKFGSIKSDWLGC
MMP-7, sequence (P09237 95-267): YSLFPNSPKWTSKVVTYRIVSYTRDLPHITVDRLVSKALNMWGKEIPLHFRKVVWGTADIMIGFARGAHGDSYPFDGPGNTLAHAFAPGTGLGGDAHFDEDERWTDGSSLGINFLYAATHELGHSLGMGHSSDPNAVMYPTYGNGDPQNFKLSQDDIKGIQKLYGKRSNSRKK
MMP-1, sequence (P03956 100-469): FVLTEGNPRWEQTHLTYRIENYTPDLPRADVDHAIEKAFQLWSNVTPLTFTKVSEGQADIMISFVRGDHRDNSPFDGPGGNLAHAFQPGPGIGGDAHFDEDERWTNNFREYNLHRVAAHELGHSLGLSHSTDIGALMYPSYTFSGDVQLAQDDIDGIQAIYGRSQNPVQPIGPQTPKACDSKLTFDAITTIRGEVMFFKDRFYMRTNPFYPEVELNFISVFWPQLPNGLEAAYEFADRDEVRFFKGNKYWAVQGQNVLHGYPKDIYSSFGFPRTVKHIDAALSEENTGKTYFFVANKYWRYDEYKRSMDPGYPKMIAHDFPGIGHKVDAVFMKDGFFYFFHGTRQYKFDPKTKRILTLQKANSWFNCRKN
MMP-8, sequence (P22894 101-467): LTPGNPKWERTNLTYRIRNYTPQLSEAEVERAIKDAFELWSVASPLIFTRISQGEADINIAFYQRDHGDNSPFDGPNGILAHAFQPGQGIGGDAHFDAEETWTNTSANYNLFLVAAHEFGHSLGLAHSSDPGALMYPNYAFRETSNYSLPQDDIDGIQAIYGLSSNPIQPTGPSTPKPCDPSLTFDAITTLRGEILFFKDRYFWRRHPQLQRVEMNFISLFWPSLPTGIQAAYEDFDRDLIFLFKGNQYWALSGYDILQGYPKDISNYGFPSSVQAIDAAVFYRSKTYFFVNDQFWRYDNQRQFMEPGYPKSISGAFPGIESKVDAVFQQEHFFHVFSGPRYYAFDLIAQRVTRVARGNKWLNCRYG

SMILES: O=C(CCS)Nc1ccc(Cl)c(Cl)c1 [HIPS1447, N-(3,4-Dichlorophenyl)-3-mercaptopropanamide]
- fold decrease of imipenem MIC value [1]: 64 fold
- inhibition at 100 µM [2]: < 10%
- IC50 [3]: 0.1 µM
- inhibition at 100 µM [4]: < 10%
- IC50 [5]: 1.3 µM
- IC50 [6]: > 100 µM
- IC50 [7]: 5 ± 0.6 µM
- inhibition at 100 µM [8]: 38.2 ± 24.8%
- intrinsic antibacterial activity (MIC) [9]: no intrinsic antibacterial activity
- IC50 [10]: > 100 µM
- IC50 [11]: > 100 µM
- inhibition at 100 µM [12]: 15.8 ± 13.5%
- inhibition at 100 µM [13]: 17.9 ± 7.8%
- inhibition at 100 µM [14]: < 10%

SMILES: O=C(CCS)Nc1ccccc1C(=O)O [HIPS1686]
- IC50 [3]: 2.2 ± 0.2 µM
- MIC (mg/L) Imipenem (+HIPS1686 256 mg/L) [15]: 1 mg/L (≈ 4.44 µM)
- MIC (mg/L) Imipenem (+HIPS1686 256 mg/L) [16]: 32 mg/L (≈ 142 µM)
- MIC (mg/L) Imipenem (+HIPS1686 256 mg/L) [17]: 1 mg/L (≈ 4.44 µM)
- IC50 [5]: 3.4 ± 0.1 µM
- MIC (mg/L) Imipenem (+HIPS1686 256 mg/L) [18]: 0.5 mg/L (≈ 2.22 µM)
- IC50 [7]: 4.1 ± 0.3 µM
- MIC ([19]; Escherichia coli): > 1020 µg/mL
- MIC of imipenem in the presence of HIPS1686 ([19]; HIPS1686 constant 64 μg/ml): 4 µg/mL
- MIC of imipenem in the presence of HIPS1686 ([19]; HIPS1686 constant 256 μg/ml): 1 µg/mL
- MIC of imipenem in the presence of HIPS1686 ([19]; HIPS1686 constant 1024 μg/ml): 1 µg/mL
- MIC (mg/L) Imipenem (+HIPS1686 256 mg/L) [20]: 2 mg/L (≈ 8.88 µM)
- intrinsic antibacterial activity (MIC) [9]: no intrinsic antibacterial activity
- MIC (mg/L) Imipenem (+HIPS1686 256 mg/L) [21]: 4 mg/L (≈ 17.8 µM)
- Imipenem MIC ([22]; +4 mg/L HIPS1686): 64 µg/mL
- Imipenem MIC ([22]; +8 mg/L HIPS1686): 64 µg/mL
- Imipenem MIC ([22]; +16 mg/L HIPS1686): 64 µg/mL
- Imipenem MIC ([22]; +32 mg/L HIPS1686): 16 µg/mL
- Imipenem MIC ([22]; +64 mg/L HIPS1686): 8 µg/mL
- Imipenem MIC ([22]; +128 mg/L HIPS1686): 2 µg/mL
- Imipenem MIC ([22]; +256 mg/L HIPS1686): 2 µg/mL
- MIC (mg/L) Imipenem (+HIPS1686 256 mg/L) [23]: 4 mg/L (≈ 17.8 µM)
